Assay results from patent publication US20230093684A1, “STIMULI - OR BIO- RESPONSIVE COPOLYMERS, THE POLYMERSOMES COMPRISING THE SAME AND THEIR USE IN DRUG DELIVERY” (CENTRE NATIONAL DE LA RECHERCHE SCIENTIFIQUE, priority 2019, published 2023).

Assay: Glutathione (GSH)-triggered doxorubicin release followed by fluorescence
Format: physicochemical
Conditions: Dox solution in brine 0.9% + GSH 10 mM
Description: Release of the encapsulated compound: The amount of released dye was followed at RT by fluorescence spectroscopy (Hitachi F7000 spectrometer). […] The λex excitation wavelength was set at 480 nm and the emission λem spectra were recorded from 490 to 720 nm. The instrument was used in scan mode, with excitation slit set to 5 nm and emission slit set to 5 nm.
The liberation of doxorubicin was followed by monitoring the fluorescence. Fluorescence spectra were collected by excitation at λex=470 nm wavelength and reading at λem=600 nm. In order to quantify the encapsulated drug, a method for the quantitative liberation was needed. Different methods, such as solvolysis, photolysis, addition of redox agents (sodium dithionite, mercaptoethanol, sodium thiosulfate, glutathione) were tested and are discussed as follows.
In parallel, Quino-Ps-DOX (50 μL) was treated with the […] glutathione (GSH) in its reduced form, 1 μL at c=10 mM in brine (0.9% (v/w). The concentration of the GSH was set to 10 mM in order to be compatible with the highest intracellular level (FIG. 5).
The amount of the liberated drug was quantified by fluorescence (λex=470 nm and λem=600 nm), by using a calibration curve (FIG. 6) ([…] (R^2=0.9911)). […]

fluorescence intensity of free doxorubicin treated with GSH (stability control): no change in the fluorescence intensity
Structure (SMILES): COc1cccc2c1C(=O)c1c(O)c3c(c(O)c1C2=O)C[C@@](O)(C(=O)CO)C[C@@H]3O[C@H]1C[C@H](N)[C@H](O)[C@H](C)O1 [doxorubicin]
